Data reported in PubChem BioAssay (NCI).
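All cell lines were grown in 96-well plates and treated with compound for 48 hours. GI50 marks 50% less growth. TGI marks complete inhibition of growth.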

Key:
Experiment in all cases: inhibition of tumour cell growth, NCI panel, 48 h
SR leukemia = tested on: SR leukemia
NCI-H460 lung = tested on: NCI-H460 lung
NCI-H23 lung = tested on: NCI-H23 lung
UACC-62 melanoma = tested on: UACC-62 melanoma
EKVX NSCLC = tested on: EKVX NSCLC
SK-MEL-2 melanoma = tested on: SK-MEL-2 melanoma
SF-268 CNS = tested on: SF-268 CNS
OVCAR-4 ovarian = tested on: OVCAR-4 ovarian
PC-3 prostate = tested on: PC-3 prostate
SNB-75 CNS = tested on: SNB-75 CNS

SMILES | TGI (SR leukemia) [µM] | TGI (NCI-H460 lung) [µM] | TGI (NCI-H23 lung) [µM] | TGI (UACC-62 melanoma) [µM] | TGI (EKVX NSCLC) [µM] | TGI (SK-MEL-2 melanoma) [µM] | TGI (SF-268 CNS) [µM] | TGI (OVCAR-4 ovarian) [µM] | TGI (PC-3 prostate) [µM] | TGI (SNB-75 CNS) [µM] | GI50 (SR leukemia) [µM] | GI50 (NCI-H460 lung) [µM] | GI50 (NCI-H23 lung) [µM] | GI50 (UACC-62 melanoma) [µM] | GI50 (EKVX NSCLC) [µM] | GI50 (SK-MEL-2 melanoma) [µM] | GI50 (SF-268 CNS) [µM] | GI50 (OVCAR-4 ovarian) [µM] | GI50 (SNB-75 CNS) [µM]
CC(C)(C)c1cc(-c2cc(C(C)(C)C)[nH]n2)n[nH]1 | > 100 | > 100 | > 100 | > 100 | > 100 | > 100 | > 100 | > 100 | > 100 |  |  |  |  |  |  |  |  |  | 
CC(=O)N(C)c1ccc(N=CN(C)C)cc1 | > 100 |  | > 100 | > 100 | > 100 | > 100 | > 100 | > 100 | > 100 | > 100 |  |  |  |  |  |  |  |  | 
COc1ccc(N=C2S/C(=N\C(=Nc3ccccc3)SCc3ccccc3)N(c3ccccc3)C2=Nc2ccc(OC)cc2)cc1 | > 100 |  | > 100 | > 100 | > 100 | > 100 |  |  | > 100 | > 100 |  |  |  |  |  |  |  |  | 
CC(=O)OCC(C)C1=C(OC(C)=O)C(=O)C2(C)C/C=C(/C)CC/C=C(\C)CCC(OC(C)=O)C(C)CCC12 (centres undefined) | 40.3 | 10.8 |  | 28 |  | 30.6 | 35 | 82.3 | 30.2 | > 100 |  |  |  |  |  |  |  |  | 
N#C[C@H](C(=O)c1ccccc1F)c1nc2ccccc2s1 |  | 94.2 | > 100 | > 100 | > 100 | 51.1 | > 100 |  | > 100 | > 100 |  |  |  |  |  |  |  |  | 
FC(F)(F)c1ccc(Cc2nc3cc4ccccc4cc3[nH]2)cc1 |  | > 100 | > 100 | > 100 | > 100 | > 100 | > 100 | > 100 | > 100 | 36.1 |  |  |  |  |  |  |  |  | 
NC(=S)N/N=C/c1nccc2ccccc12 | 11.5 | 4.94 | 6.42 | 14.7 |  | > 100 | 4.04 | > 100 |  | 13.6 |  |  |  |  |  |  |  |  | 
CCOc1ccc(N/C(=C(/C(Cl)=C(/Cl)Nc2ccccc2)[N+](=O)[O-])n2nnc3ccccc32)cc1 |  | > 100 | 32.6 | 43.5 | > 100 | 73.7 | 53.4 | > 100 | 58.4 | > 100 |  |  |  |  |  |  |  |  | 
Oc1cc(O)c2ccc(-c3ccc(O)c(O)c3)[o+]c2c1 |  | > 100 | > 100 | > 100 | > 100 | > 100 | > 100 | > 100 | > 100 | > 100 |  |  |  |  |  |  |  |  | 
Cc1cc(O)c2c(c1O)C(=O)c1cccc(O)c1C2=O |  | > 100 | > 100 | > 100 | > 100 | > 100 | > 100 | > 100 | > 100 | > 100 |  |  |  |  |  |  |  |  | 
Nc1ccc2nc3c(nc2c1)C(=O)c1ccccc1-3 |  | > 100 | > 100 | > 100 | > 100 |  | > 100 | > 100 | > 100 | > 100 |  |  |  |  |  |  |  |  | 
O=C1C(C(O)(C(F)(F)Cl)C(F)(F)Cl)CCCC1C(O)(C(F)(F)Cl)C(F)(F)Cl (centres undefined) |  | > 10 | > 10 | > 10 | > 10 | > 10 | > 10 | > 10 | > 10 |  |  |  |  |  |  |  |  |  | 
O=P1(Oc2ccccc2)N=P(c2ccccc2)(c2ccccc2)C=C(c2ccc(Cl)cc2)N1 (centres undefined) | 21.5 | 18.5 | 32.2 | 27.5 | 21.6 | 27.6 | 26.2 |  | 20.7 |  |  |  |  |  |  |  |  |  | 
CC(=O)OCC(OC(C)=O)C(OC(C)=O)C(/C=N\Nc1nc2ccccc2c(=O)[nH]1)=N\Nc1nc2ccccc2c(=O)[nH]1 (centres undefined) | > 100 | 47.6 | > 100 | > 100 | > 100 | > 100 | > 100 |  | > 100 | > 100 |  |  |  |  |  |  |  |  | 
CC(=O)C1C(=O)C(=O)N(c2ccccc2)C1=O (centres undefined) |  | > 100 | > 100 | > 100 | > 100 | > 100 | > 100 | > 100 | > 100 | > 100 |  |  |  |  |  |  |  |  | 
CC(=O)OC1CC2CCN3C(=O)c4cc5c(cc4[C@H](C1OC(C)=O)C23)OCO5 (some centres undefined) | > 100 | > 100 | > 100 | > 100 | > 100 |  | > 100 |  |  | > 100 |  |  |  |  |  |  |  |  | 
NC1=NC2=c3ccccc3=C(c3cnccn3)C2(c2cnccn2)c2ccccc21 (centres undefined) | > 100 | > 100 | > 100 | > 100 | > 100 | > 100 | > 100 | > 100 |  | > 100 |  |  |  |  |  |  |  |  | 
c1ccc(N2N=C(c3cccc(Nc4ccncc4)c3)CC2c2ccc3c(c2)OCO3)cc1 (centres undefined) | 2.89 | 3.18 | 4.04 | 3.24 | 11 | 4.01 | 3.75 | 3.89 |  | 3.74 | 0.955 | 1.71 | 1.94 | 1.73 | 2.66 | 2.02 | 1.79 | 1.53 | 1.47
COc1cc(C(=O)/C=C/c2ccc(OCCSCCCCCCCCCCSCCOc3ccc(/C=C/C(=O)c4cc(OC)c(OC)c(OC)c4)cc3)cc2)cc(OC)c1OC | > 100 |  | > 100 | > 100 | > 100 | > 100 | > 100 |  | > 100 | > 100 |  |  |  |  |  |  |  |  | 
COC(=O)[C@H](Cc1ccccc1)NC(=O)/C(=C/C(C)C)NC(=O)[C@H](CCSC)NC=O | > 100 | > 100 | > 100 | > 100 | > 100 | > 100 | > 100 | > 100 |  | > 100 |  |  |  |  |  |  |  |  | 
Cc1c(C)c(C)c(CC2(C)CSC2)c(CC2(C)CSC2)c1C | > 100 | > 100 |  | > 100 | > 100 | > 100 | > 100 |  | > 100 | > 100 |  |  |  |  |  |  |  |  | 
CC(=O)N1N=C(c2ccc3ccccc3c2O)CC1c1cccs1 (centres undefined) | 14.3 | > 100 | > 100 | 25.9 |  | 74.3 | > 100 | > 100 | > 100 | > 100 |  |  |  |  |  |  |  |  | 
COc1cc(=O)c2c(O)c3c(O)oc(C)cc3c(OC)c2c1 | 64.2 | > 100 | 69.8 | 52.9 | 63.8 | 98.9 | > 100 | 27.9 | > 100 |  |  |  |  |  |  |  |  |  | 
